Data reported in patent US20140024527A1, “HERBICIDAL PYRAZINONES” (E I DU DE NEMOURS AND COMPANY, priority 2011, published 2014).

Columns and labels:
Test in all cases: Test A preemergence
Type in all cases: in vivo
Settings in all cases: 0 to 100 scale, 0 no effect, 100 complete control, approx. 10 days
[1] = test system: corn (Zea mays)
Source text: (§1) Seeds of barnyardgrass (Echinochloa crus-galli), large crabgrass (Digitaria sanguinalis), giant foxtail (Setaria faberii), morningglory (Ipomoea spp.), pigweed (Amaranthus retroflexus), velvetleaf (Abutilon theophrasti), wheat (Triticum aestivum) and corn (Zea mays) were planted into a blend of loam soil and sand and treated preemergence with a directed soil spray using test chemicals formulated in a non-phytotoxic solvent mixture which included a surfactant. At the same time these species were also treated with postemergence applications of test compounds formulated in the same manner. Plants ranged in height from 2 to 10 cm and were in the one- to two-leaf stage for the postemergence treatments. Treated plants and untreated controls were maintained in a greenhouse for approximately 10 days, after which time all treated plants were compared to untreated controls and visually evaluated for injury. Plant response ratings, summarized in Table A, are based on a 0 to 100 scale where 0 is no effect and 100 is complete control.

[2] = test system: pigweed (Amaranthus retroflexus)
Source text: as §1

[3] = test system: morningglory (Ipomoea spp.)
Source text: as §1

[4] = test system: barnyardgrass (Echinochloa crus-galli)
Source text: as §1

[5] = test system: large crabgrass (Digitaria sanguinalis)
Source text: as §1

[6] = test system: wheat (Triticum aestivum)
Source text: as §1

[7] = test system: giant foxtail (Setaria faberii)
Source text: as §1

[8] = test system: velvetleaf (Abutilon theophrasti)
Source text: as §1

Compound	Plant response rating, Corn ([1]; 125 g ai/ha)	Plant response rating, Corn ([1]; 500 g ai/ha)	Plant response rating, Pigweed ([2]; 125 g ai/ha)	Plant response rating, Pigweed ([2]; 500 g ai/ha)	Plant response rating, Morningglory ([3]; 125 g ai/ha)	Plant response rating, Morningglory ([3]; 500 g ai/ha)	Plant response rating, Barnyardgrass ([4]; 125 g ai/ha)	Plant response rating, Barnyardgrass ([4]; 500 g ai/ha)	Plant response rating, Crabgrass, Large ([5]; 125 g ai/ha)	Plant response rating, Crabgrass, Large ([5]; 500 g ai/ha)	Plant response rating, Wheat ([6]; 125 g ai/ha)	Plant response rating, Wheat ([6]; 500 g ai/ha)	Plant response rating, Foxtail, Giant ([7]; 125 g ai/ha)	Plant response rating, Foxtail, Giant ([7]; 500 g ai/ha)	Plant response rating, Velvetleaf ([8]; 125 g ai/ha)	Plant response rating, Velvetleaf ([8]; 500 g ai/ha)
COCCn1c(-c2cc(F)cc(F)c2)c(Cl)nc(C(=O)C2=C(O)CCCC2=O)c1=O [Compound 6, 5-chloro-6-(3,5-difluorophenyl)-3-[(2-hydroxy-6-oxo-1-cyclohexen-1-yl)carbonyl]-1-(2-methoxyethyl)-2(1H)-pyrazinone]	0	20	50	90	40	80	20	90	90	100	0	20	20	70	50	100
COCCn1c(-c2cccc(F)c2)c(Cl)nc(C(=O)C2=C(O)CCCC2=O)c1=O [Compound 4, 5-chloro-6-(3-fluorophenyl)-3-[(2-hydroxy-6-oxo-1-cyclohexen-1-yl)carbonyl]-1-(2-methoxyethyl)-2(1H)pyrazinone]	0	0	60	100	10	70	0	70	80	100	0	0	0	30	40	90
